One may read the IC50 as the point on the concentration scale where inhibition reaches its midpoint.

T1 sequence (P08069 31-1367): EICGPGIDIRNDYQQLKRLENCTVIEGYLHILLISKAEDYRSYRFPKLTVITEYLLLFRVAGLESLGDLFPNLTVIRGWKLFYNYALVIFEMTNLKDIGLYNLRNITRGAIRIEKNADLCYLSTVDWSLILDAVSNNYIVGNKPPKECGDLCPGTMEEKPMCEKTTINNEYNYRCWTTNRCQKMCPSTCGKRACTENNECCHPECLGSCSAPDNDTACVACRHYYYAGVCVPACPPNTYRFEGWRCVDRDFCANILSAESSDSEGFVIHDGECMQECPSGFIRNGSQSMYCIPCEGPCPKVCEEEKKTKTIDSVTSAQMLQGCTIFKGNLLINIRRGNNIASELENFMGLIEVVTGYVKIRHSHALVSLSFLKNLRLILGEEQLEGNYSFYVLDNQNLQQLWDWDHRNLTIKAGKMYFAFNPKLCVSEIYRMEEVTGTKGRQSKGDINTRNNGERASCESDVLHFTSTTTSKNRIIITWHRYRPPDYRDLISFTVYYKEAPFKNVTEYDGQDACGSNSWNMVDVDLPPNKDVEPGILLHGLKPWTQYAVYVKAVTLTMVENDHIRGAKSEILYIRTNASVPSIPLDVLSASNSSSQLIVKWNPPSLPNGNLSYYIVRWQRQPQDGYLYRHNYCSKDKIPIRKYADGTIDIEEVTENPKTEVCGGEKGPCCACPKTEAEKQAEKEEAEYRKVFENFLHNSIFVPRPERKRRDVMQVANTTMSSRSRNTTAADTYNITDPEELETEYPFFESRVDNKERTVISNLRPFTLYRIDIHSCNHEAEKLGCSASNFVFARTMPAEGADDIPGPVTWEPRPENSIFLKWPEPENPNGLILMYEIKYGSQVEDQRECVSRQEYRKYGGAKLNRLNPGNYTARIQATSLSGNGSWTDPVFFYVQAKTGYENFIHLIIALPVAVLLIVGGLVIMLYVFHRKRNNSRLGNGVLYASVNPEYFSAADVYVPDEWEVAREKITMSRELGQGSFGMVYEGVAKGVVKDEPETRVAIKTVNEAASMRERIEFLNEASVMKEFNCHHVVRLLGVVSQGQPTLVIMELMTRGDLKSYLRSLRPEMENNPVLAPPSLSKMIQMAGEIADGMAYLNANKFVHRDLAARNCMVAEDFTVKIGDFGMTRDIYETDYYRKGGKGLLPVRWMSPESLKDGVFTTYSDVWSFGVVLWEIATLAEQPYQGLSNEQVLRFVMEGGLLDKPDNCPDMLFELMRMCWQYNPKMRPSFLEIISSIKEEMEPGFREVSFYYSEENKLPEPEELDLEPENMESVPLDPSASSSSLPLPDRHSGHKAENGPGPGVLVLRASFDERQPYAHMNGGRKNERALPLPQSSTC

The test has as its target T1, IGF-1R (Homo sapiens, UniProt P08069).
T1 construct: expressed in transfected cells
The test is described as follows: Example B-1: IGF-1R Assay (PC3 cells stimulated with IGF1, AlphaLISA on cell lysates). The test is classed as cell-based. The settings on record: compound two hours, IGF1 200 ng/mL for 30 min, read-out: IC50, Biological Activity against IGF-1R (Table B1). The protocol: 50K PC3 cells were seeded on day 1 in 50 μL of media in 96-well plate and incubated overnight at 37° C., 5% CO2. On day 2, all cells were expected to be at 80-90% confluency. Cells were starved for two hours by changing the media to 90 μL of EMEM serum-free media and incubated for 2 hours. Next, cells were treated with 10 μL of 10× concentrated and 3× serially diluted compounds for two hours. It makes 1× of compounds in 100 μL media. This was followed by stimulation of cells with 11×IGF1 for 30 min in 10 μL of serum-free EMEM media at the final concentration of 200 ng/mL.
The media was removed and replaced by 50 μL of 1× lysis buffer from the AlphaLISA kit (with 1× of cOmplete™ protease inhibitor). The plates were sealed, and cells were allowed to lyse for 10 min in the shaker before storing the plate at −20° C. until used. The AlphaLISA assay with processed cell lysates were performed as described in the protocol. Briefly, 10 μL of the undiluted sample were loaded to 384 well Optiplates and 5 μL of the acceptor mix (as described in the AlphaLISA kit) was added to each well. The plates were sealed and briefly vortexed followed by the incubation at RT for 3 hours. In the dark, 5 μL of donor mix was added to each well. All plates were sealed and stored at RT overnight. The plates were read in EnVision reader using standard AlphaLISA settings.
Compound activity was analyzed using CBIS data analysis suite (Cheminnovation, CA). Percentage inhibition was calculated using the following formula: % I-hibition=100%×(1−(mea−RLU of test sample−mean RLU of vehicle control)/(mean-RLU of EC80 control−mean RLU of vehicle control)). The activity for representative examples of the invention is shown in the following table, wherein A: IC50≤500 nM; B: 500 nM<IC50≤2 μM; C: 2 μM<IC50≤10 μM; D: IC50>10 μM.
In general terms: Bead proximity is the source of the signal in Alpha formats.
Take `CC(C)Nc1cc(CN2C(=O)N(c3ccc(S(F)(F)(F)(F)F)cc3)C(=O)C2(C)C)ccn1` [Compound 178, 1-((2-(isopropylamino)pyridin-4-yl)methyl)-5,5-dimethyl-3-(4-(pentafluoro-16-sulfanyl)phenyl)imidazolidine-2,4-dione]: the IC50 was not above 500 nM.
Consider `CC1(C)C(=O)N(c2ccc(-c3nccs3)cc2)C(=O)N1Cc1ccnc(N)c1` [Compound 81, 1-((2-aminopyridin-4-yl)methyl)-5,5-dimethyl-3-(4-(thiazol-2-yl)phenyl)imidazolidine-2,4-dione], for which the IC50 lay within 2000 to 10000 nM.
Turning to `Nc1cc(CN2C(=O)N(c3ccc(SC(F)(F)F)cc3)C(=O)[C@@H]2c2ccccc2)ccn1` [Compound 294, (S)-1-((2-aminopyridin-4-yl)methyl)-5-phenyl-3-(4-((trifluoromethyl)thio)phenyl)imidazolidine-2,4-dione], the IC50 was more than 10000 nM.
`CC1(C)C(=O)N(c2ccc(C3(C(F)(F)F)CC3)cc2)C(=O)N1Cc1ccnc(N)c1` [Compound 83, 1-((2-aminopyridin-4-yl)methyl)-5,5-dimethyl-3-(4-(1-(trifluoromethyl)cyclopropyl)phenyl)imidazolidine-2,4-dione]: the IC50 was not above 500 nM.
`CC1(C)C(=O)N(c2ccc(SC(F)(F)F)cc2)C(=O)N1Cc1ccnc(NC(=O)NC23CCC(CC2)C3)c1` [Compound 304, 1-(bicyclo[2.2.1]heptan-1-yl)-3-(4-((5,5-dimethyl-2,4-dioxo-3-(4-((trifluoromethyl)thio)phenyl)imidazolidin-1-yl)methyl)pyridin-2-yl)urea]: the IC50 lay within 500 to 2000 nM.
Consider `CC(C)(C)c1ccc(N2C(=O)N(Cc3ccnc4[nH]cc(Cl)c34)C(C)(C)C2=O)cc1` [Compound 6, 3-(4-(tert-butyl)phenyl)-1-((3-chloro-1H-pyrrolo[2,3-b]pyridin-4-yl)methyl)-5,5-dimethylimidazolidine-2,4-dione], for which the IC50 is not above 500 nM.
For the compound `Nc1cc(CN2C(=O)N(c3ccc(SC(F)(F)F)cc3)C(=O)[C@@H]2Cc2ccccc2)ccn1` [Compound 289, (S)-1-((2-aminopyridin-4-yl)methyl)-5-benzyl-3-(4-((trifluoromethyl)thio)phenyl)imidazolidine-2,4-dione], the IC50 was in the range of 500 to 2000 nM.
Under `CC(C)Nc1cc(CN2C(=O)N(c3ccc(SC(F)(F)F)cc3)C(=O)C2(C)C)c(F)cn1` [Compound 384, 1-((5-fluoro-2-(isopropylamino)pyridin-4-yl)methyl)-5,5-dimethyl-3-(4-((trifluoromethyl)thio)phenyl) imidazolidine-2,4-dione] stands not above 500 nM.
For the compound `CC(C)C#Cc1cc(CN2C(=O)N(c3ccc(SC(F)(F)F)cc3)C(=O)C2(C)C)cnc1N` [Compound 385, 1-((6-amino-5-(3-methylbut-1-yn-1-yl)pyridin-3-yl)methyl)-5,5-dimethyl-3-(4-((trifluoromethyl)thio)phenyl) imidazolidine-2,4-dione], the IC50 was in the range of 500 to 2000 nM.
Under `CC(C)Nc1cc(CN2C(=O)N(c3ccc(SC(F)(F)F)cc3)C(=O)C2(C)C)ncn1` [Compound 379, 1-((6-(isopropylamino)pyrimidin-4-yl)methyl)-5,5-dimethyl-3-(4-((trifluoromethyl)thio)phenyl) imidazolidine-2,4-dione] stands 500 to 2000 nM; under `CC1(C)C(=O)N(c2ccc(SC(F)(F)F)cc2)C(=O)N1Cc1ncnc2[nH]ccc12` [Compound 3, 1-((7H-pyrrolo[2,3-d]pyrimidin-4-yl)methyl)-5,5-dimethyl-3-(4-((trifluoromethyl)thio)phenyl)imidazolidine-2,4-dione], not above 500 nM; under `Cc1ccccc1NC(=O)Nc1cc(CN2C(=O)N(c3ccc(SC(F)(F)F)cc3)C(=O)C2(C)C)ccn1` [Compound 366, 1-(4-((5,5-dimethyl-2,4-dioxo-3-(4-((trifluoromethyl)thio)phenyl)imidazolidin-1-yl)methyl)pyridin-2-yl)-3-(o-tolyl)urea], not above 500 nM.
Under `CC1(C)C(=O)N(c2ccc(SC(F)(F)F)cc2)C(=O)N1Cc1ccnc(NCC2CC2)c1` [Compound 311, 1-((2-((cyclopropylmethyl)amino)pyridin-4-yl)methyl)-5,5-dimethyl-3-(4-((trifluoromethyl)thio)phenyl) imidazolidine-2,4-dione] stands not above 500 nM.
Turning to `Nc1cc(CN2C(=O)N(c3ccc(SC(F)(F)F)cc3)C(=O)C23CCCCC3)ccn1` [Compound 293, 1-((2-aminopyridin-4-yl)methyl)-3-(4-((trifluoromethyl)thio)phenyl)-1,3-diazaspiro[4.5]decane-2,4-dione], the IC50 was in the range of 2000 to 10000 nM.
As to `CC1(C)C(=O)N(c2ccc(C3(C(F)(F)F)CC3)cc2)C(=O)N1Cc1ccnc(NCC(F)F)c1` [Compound 103, 1-((2-((2,2-difluoroethyl)amino)pyridin-4-yl)methyl)-5,5-dimethyl-3-(4-(1-(trifluoromethyl)cyclopropyl)phenyl) imidazolidine-2,4-dione], the IC50 is not above 500 nM.
Under `Nc1cc(CN2C(=O)N(c3ccc(SC(F)(F)F)cc3)C(=O)C23CCCC3)ccn1` [Compound 291, ((2-aminopyridin-4-yl)methyl)-3-(4-((trifluoromethyl)thio)phenyl)-1,3-diazaspiro[4.4]nonane-2,4-dione] stands 500 to 2000 nM.
For `CC1(C)C(=O)N(c2ccc(SC(F)(F)F)cc2)C(=O)N1Cc1ccnc(Nc2cccc(O)n2)c1` [Compound 362, 1-((2-((6-hydroxypyridin-2-yl)amino)pyridin-4-yl)methyl)-5,5-dimethyl-3-(4-((trifluoromethyl)thio)phenyl) imidazolidine-2,4-dione], the IC50 lay in the range of 500 to 2000 nM.
The value for `Cc1ccncc1Nc1cc(CN2C(=O)N(c3ccc(SC(F)(F)F)cc3)C(=O)C2(C)C)ccn1` [Compound 358, 5,5-dimethyl-1-((2-((4-methylpyridin-3-yl)amino)pyridin-4-yl)methyl)-3-(4-((trifluoromethyl)thio)phenyl) imidazolidine-2,4-dione] was not above 500 nM; that for `CC1(C)CNc2cc(N3C(=O)N(Cc4ccnc(N)c4)C(C)(C)C3=O)ccc21` [Compound 401, 1-((2-aminopyridin-4-yl)methyl)-3-(3,3-dimethylindolin-6-yl)-5,5-dimethylimidazolidine-2,4-dione] was not above 500 nM; that for `CC(C)Nc1cc(CN2C(=O)N(c3ccc([C@H]4C[C@@H]4F)cc3)C(=O)C2(C)C)ccn1` [Compound 96, 3-(4-((1R,2S)-2-fluorocyclopropyl)phenyl)-1-((2-(isopropylamino)pyridin-4-yl)methyl)-5,5-dimethylimidazolidine-2,4-dione] was 500 to 2000 nM.
As for `CC1(C)C(=O)N(c2ccc(C3(C(F)(F)F)CC3)cc2)C(=O)N1Cc1ccnc2[nH]c(-c3ccccc3)cc12` [Compound 11, 5,5-dimethyl-1-((2-phenyl-1H-pyrrolo[2,3-b]pyridin-4-yl)methyl)-3-(4-(1-(trifluoromethyl)cyclopropyl)phenyl) imidazolidine-2,4-dione], the IC50 is not above 500 nM.
`CC(C)(C)c1ccc(N2C(=O)N(Cc3ccnc(NC4CC(F)(F)C4)c3)C(C)(C)C2=O)cc1` [Compound 270, 3-(4-(tert-butyl)phenyl)-1-((2-((3,3-difluorocyclobutyl)amino)pyridin-4-yl)methyl)-5,5-dimethylimidazolidine-2,4-dione]: the IC50 is not above 500 nM.
Take `CC(C)(C)c1ccc(N2C(=O)N(Cc3ccnc(NC4COC4)c3)C(C)(C)C2=O)cc1` [Compound 275, 3-(4-(tert-butyl)phenyl)-5,5-dimethyl-1-((2-(oxetan-3-ylamino)pyridin-4-yl)methyl)imidazolidine-2,4-dione]: the IC50 is not above 500 nM.
As for `CC1(C)CC(Nc2cc(CN3C(=O)N(c4ccc(C5(C(F)(F)F)CC5)cc4)C(=O)C3(C)C)ccn2)CCO1` (stereo not drawn) [Compound 113, 1-((2-((2,2-dimethyltetrahydro-2H-pyran-4-yl)amino)pyridin-4-yl)methyl)-5,5-dimethyl-3-(4-(1-(trifluoromethyl)cyclopropyl)phenyl) imidazolidine-2,4-dione], the IC50 is not above 500 nM.
The value for `CC1(C)C(=O)N(c2ccc(C(F)(F)F)cc2)C(=O)N1Cc1ccnc(N)c1` [Compound 91, 1-((2-aminopyridin-4-yl)methyl)-5,5-dimethyl-3-(4-(trifluoromethyl)phenyl)imidazolidine-2,4-dione] was 2000 to 10000 nM.
As for `COC[C@H](C)Nc1cc(CN2C(=O)N(c3ccc(C4(C(F)(F)F)CC4)cc3)C(=O)C2(C)C)ccn1` [Compound 105, (S)-1-((2-((1-methoxypropan-2-yl)amino)pyridin-4-yl)methyl)-5,5-dimethyl-3-(4-(1-(trifluoromethyl)cyclopropyl)phenyl) imidazolidine-2,4-dione], the IC50 was not above 500 nM.
For `CC1(C)C(=O)N(c2ccc(SC(F)(F)F)cc2)C(=O)N1CCc1cn[nH]c1` [Compound 400, 1-(2-(1H-pyrazol-4-yl)ethyl)-5,5-dimethyl-3-(4-((trifluoromethyl)thio)phenyl) imidazolidine-2,4-dione], the IC50 is 2000 to 10000 nM.

The values above are taken from patent US20250145585A1, “HETEROCYCLIC INHIBITORS OF IGF-1R FOR TREATMENT OF DISEASE” (HORIZON THERAPEUTICS IRELAND DAC, priority 2023, published 2025).
